Activity calls are given as the source filed them. No cut-off for these calls is given here.
What was measured:
[1] = target: T1, Prostaglandin G/H synthase 1 (Ovis aries, UniProt P05979); assay: Inhibition of peroxidase activity of COX1 in heep seminal vesicle by TMPD assay; type: tissue-based
T1 sequence (P05979 whole entry): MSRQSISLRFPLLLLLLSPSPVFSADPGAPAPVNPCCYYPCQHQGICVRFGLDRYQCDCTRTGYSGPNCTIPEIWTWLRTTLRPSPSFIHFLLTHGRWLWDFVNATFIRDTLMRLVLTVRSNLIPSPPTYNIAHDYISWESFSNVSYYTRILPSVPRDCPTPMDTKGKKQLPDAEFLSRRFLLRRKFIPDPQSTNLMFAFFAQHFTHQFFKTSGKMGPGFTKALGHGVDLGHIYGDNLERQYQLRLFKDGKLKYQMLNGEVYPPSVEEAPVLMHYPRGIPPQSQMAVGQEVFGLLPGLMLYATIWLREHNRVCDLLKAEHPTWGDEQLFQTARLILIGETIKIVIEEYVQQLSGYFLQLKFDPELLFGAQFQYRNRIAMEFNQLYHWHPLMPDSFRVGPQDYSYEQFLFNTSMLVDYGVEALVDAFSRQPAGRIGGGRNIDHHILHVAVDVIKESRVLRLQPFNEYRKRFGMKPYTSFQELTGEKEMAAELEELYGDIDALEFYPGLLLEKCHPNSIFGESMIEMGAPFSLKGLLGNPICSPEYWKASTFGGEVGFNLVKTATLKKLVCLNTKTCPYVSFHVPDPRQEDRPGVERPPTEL

[2] = target: T1, Prostaglandin G/H synthase 1; assay: Inhibition of cyclooxygenase activity of COX1 in sheep seminal vesicle in presence of 1 mM phenol by cyclooxygenase assay; type: tissue-based
[3] = target: T1, Prostaglandin G/H synthase 1; assay: Binding affinity to COX1 in sheep seminal vesicle
[4] = target: T2, Prostaglandin G/H synthase 2 (Homo sapiens) (UniProt P35354); assay: Inhibition of human COX2 expressed in baculovirus infected Sf-21 insect cells
T2 sequence (whole entry): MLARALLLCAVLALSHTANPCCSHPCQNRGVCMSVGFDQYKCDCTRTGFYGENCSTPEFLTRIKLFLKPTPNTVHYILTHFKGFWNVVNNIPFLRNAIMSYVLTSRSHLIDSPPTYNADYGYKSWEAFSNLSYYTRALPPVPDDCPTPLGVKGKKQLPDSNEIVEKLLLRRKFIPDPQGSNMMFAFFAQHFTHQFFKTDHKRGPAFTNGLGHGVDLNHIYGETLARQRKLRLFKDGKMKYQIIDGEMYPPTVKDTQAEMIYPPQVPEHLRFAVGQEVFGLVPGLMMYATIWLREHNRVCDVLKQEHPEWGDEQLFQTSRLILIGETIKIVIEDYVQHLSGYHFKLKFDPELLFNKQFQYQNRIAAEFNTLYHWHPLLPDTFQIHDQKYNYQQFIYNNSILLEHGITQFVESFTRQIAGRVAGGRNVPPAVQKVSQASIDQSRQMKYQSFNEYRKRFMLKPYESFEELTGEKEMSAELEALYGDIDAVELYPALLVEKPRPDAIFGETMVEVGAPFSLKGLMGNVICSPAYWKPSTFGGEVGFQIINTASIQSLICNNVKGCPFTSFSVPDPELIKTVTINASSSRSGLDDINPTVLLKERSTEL

[5] = target: T3, Prostaglandin G/H synthase 1 (Ovis aries) (UniProt P05979); assay: Effect on COX1 activity in sheep seminal vesicle at 5 uM by TMPD peroxidase assay; type: tissue-based
T3 sequence (whole entry): T1 sequence (P05979 whole entry)

[6] = target: T3, Prostaglandin G/H synthase 1 (Ovis aries); assay: Inactivation of holo-COX1 in sheep seminal vesicle assessed as drug oxidization at 2.5 to 4 nmol by RP-HPLC in presence of hydrogen peroxide

Structure (SMILES): Oc1cc(O)c2c(c1)O[C@@H](c1ccc(O)c(O)c1)[C@@H](O)C2 [(+)-EPICATECHIN]
- IC50 [1]: 2.5 µM
- IC50 [2]: 12.8 µM
- Kd [3]: 25.1 µM
- Activity [4]: inactive
- Activity [5]: inactive
- Activity [6]: 5%

Structure (SMILES): Oc1cc(O)c2c(c1)O[C@@H](c1ccc(O)c(O)c1)[C@H](O)C2 [(-)-CATECHIN]
- IC50 [1]: 5.3 µM
- IC50 [2]: 30.8 µM
- Kd [3]: 48.7 µM
- Activity [4]: inactive
- Activity [5]: inactive
- Activity [6]: 8%

Structure (SMILES): Oc1cc(O)c2c(c1)O[C@H](c1ccc(O)c(O)c1)[C@H](O)C2 [(-)-EPICATECHIN]
- IC50 [1]: 2 µM
- IC50 [2]: 12.2 µM
- Kd [3]: 25.9 µM
- Activity [4]: inactive
- Activity [5]: inactive
- Activity [6]: 5%

Structure (SMILES): Oc1cc(O)c2c(c1)O[C@H](c1ccc(O)c(O)c1)[C@@H](O)C2 [CIANIDANOL]
- IC50 [1]: 4.1 µM
- IC50 [2]: 20.2 µM
- Kd [3]: 40.7 µM
- Activity [4]: inactive
- Activity [5]: inactive
- Activity [6]: 7%

Structure (SMILES): Oc1cccc(O)c1 [RESORCINOL]
- IC50 [1]: 3.6 µM
- IC50 [2]: 30.8 µM
- Kd [3]: 86.9 µM
- Activity [5]: inactive
- Activity [6]: 5%

Structure (SMILES): Oc1ccc(/C=C/c2cc(O)cc(O)c2)cc1 [RESVERATROL]
- IC50 [1]: 2.8 µM
- IC50 [2]: 67.3 µM
- Kd [3]: 11.7 µM
- Activity [5]: inactive
